Measurements: patent US11377442B2, “Small molecule agonists and antagonists of NR2F6 activity” (ZANDER THERAPEUTICS, INC., priority 2016, dated 2022)
Like-named read-outs stand apart in the source and are kept apart here.

How the values were obtained:
Assay type in all cases: cell-based
NR2F6 = molecular target: T1, NR2F6 (Homo sapiens, UniProt P10588); test: NR2F6 agonist screening, Firefly signal cmpd/DMSO
T1 construct: expressed in transfected cells; also transient transfection
T1 sequence (P10588 1-404): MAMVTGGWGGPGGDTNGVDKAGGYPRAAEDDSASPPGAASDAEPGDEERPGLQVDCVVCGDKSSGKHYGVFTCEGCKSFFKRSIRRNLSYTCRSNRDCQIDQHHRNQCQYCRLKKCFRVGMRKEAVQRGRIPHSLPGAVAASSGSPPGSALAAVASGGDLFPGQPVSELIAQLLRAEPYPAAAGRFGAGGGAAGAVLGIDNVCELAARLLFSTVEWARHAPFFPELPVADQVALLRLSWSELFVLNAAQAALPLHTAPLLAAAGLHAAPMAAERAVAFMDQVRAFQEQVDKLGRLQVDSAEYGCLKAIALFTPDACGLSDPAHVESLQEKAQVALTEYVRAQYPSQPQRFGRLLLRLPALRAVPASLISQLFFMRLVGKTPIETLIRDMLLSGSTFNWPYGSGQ

Renilla [1] = test: Renilla signal in NR2F6 agonist screening, cmpd/DMSO; settings: Renilla
HEK293 pGL4 = test: Firefly_pGL signal, cmpd/DMSO (pGL4 control cells); settings: Homo sapiens
NR2F6 LBD = molecular target: T2, NR2F6 LBD (Homo sapiens, UniProt P10588); test: NR2F6 LBD transient transfection
T2 construct: expressed in transfected cells
T2 sequence (P10588 165-393 limits assumed): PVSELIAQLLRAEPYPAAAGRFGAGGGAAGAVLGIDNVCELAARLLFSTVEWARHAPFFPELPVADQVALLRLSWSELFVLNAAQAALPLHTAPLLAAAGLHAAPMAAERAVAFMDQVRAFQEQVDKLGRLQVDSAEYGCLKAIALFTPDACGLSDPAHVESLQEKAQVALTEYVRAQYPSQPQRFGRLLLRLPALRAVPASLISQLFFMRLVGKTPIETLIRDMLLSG
Summary of the method: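 LBD-transfected cells treated at 40, 10, 2 and 0.5 μM (4 replicates); cytotoxicity measured in parallel, normalized to DMSO (0%) and zero signal (100%). Higher concentrations excluded where signal loss reflected toxicity.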

Renilla [2] = test: Renilla signal, LBD, cmpd/DMSO (NR2F6 LBD transfected cells)
[3] = read-out: Renilla F4, cmpd/DMSO (mean)
[4] = F4, 1% FBS, read-out: Renilla, F4, 1% FBS, cmpd/DMSO (mean)
[5] = F4, 10% FBS, read-out: Renilla, F4, 10% FBS, cmpd/DMSO (mean)

Firefly F4, cmpd/DMSO (mean) (NR2F6; 0.5 uM): 1.1 | Firefly F4, cmpd/DMSO (mean) (NR2F6; 2 uM): 1.3 | Firefly F4, cmpd/DMSO (mean) (NR2F6; 10 uM): 2.0 | Firefly F4, cmpd/DMSO (mean) (NR2F6; 40 uM): 0.6 | F4, Firefly/Renilla for S/B(F4) > 3 (NR2F6; 1% FBS, 10 uM): 1.9 | Firefly, F4/pGL4 for S/B(F4) > 3 (NR2F6; 1% FBS, 10 uM): 2.7 | F4, Firefly/Renilla for S/B(F4) > 3 (NR2F6; 1% FBS, 40 uM): 1.0 | Firefly, F4/pGL4 for S/B(F4) > 3 (NR2F6; 1% FBS, 40 uM): 2.4 | F4, Firefly/Renilla for S/B(F4) > 3 (NR2F6; 10% FBS, 10 uM): 2.2 | Firefly, F4/pGL4 for S/B(F4) > 3 (NR2F6; 10% FBS, 10 uM): 2.2 | F4, Firefly/Renilla for S/B(F4) > 3 (NR2F6; 10% FBS, 40 uM): 3.3 | Firefly, F4/pGL4 for S/B(F4) > 3 (NR2F6; 10% FBS, 40 uM): 3.1 | Firefly, F4, 1% FBS, cmpd/DMSO (mean) (NR2F6; 1% FBS, 0.5 uM): 1.2 | Firefly, F4, 1% FBS, cmpd/DMSO (mean) (NR2F6; 1% FBS, 2 uM): 2.2 | Firefly, F4, 1% FBS, cmpd/DMSO (mean) (NR2F6; 1% FBS, 10 uM): 3.9 | Firefly, F4, 1% FBS, cmpd/DMSO (mean) (NR2F6; 1% FBS, 40 uM): 3.4 | Firefly, F4, 10% FBS, cmpd/DMSO (mean) (NR2F6; 10% FBS, 0.5 uM): 0.9 | Firefly, F4, 10% FBS, cmpd/DMSO (mean) (NR2F6; 10% FBS, 2 uM): 1.4 | Firefly, F4, 10% FBS, cmpd/DMSO (mean) (NR2F6; 10% FBS, 10 uM): 4.6 | Firefly, F4, 10% FBS, cmpd/DMSO (mean) (NR2F6; 10% FBS, 40 uM): 13 | Firefly LBD, cmpd/DMSO (mean) (NR2F6 LBD; 0.5 uM): 1.1 | Firefly LBD, cmpd/DMSO (mean) (NR2F6 LBD; 2 uM): 2.0 | Firefly LBD, cmpd/DMSO (mean) (NR2F6 LBD; 10 uM): 3.2 | Firefly LBD, cmpd/DMSO (mean) (NR2F6 LBD; 40 uM): 0.4
SMILES: O=S1(=O)C[C@H](NCCCc2ccccc2)[C@@H](S(=O)(=O)c2ccc(Cl)cc2)C1 [Compound D137]
fold induction at 0.5 µM (Renilla [1]; [3]): 1.1 | fold induction at 2 µM (Renilla [1]; [3]): 1.1 | fold induction at 10 µM (Renilla [1]; [3]): 1.8 | fold induction at 40 µM (Renilla [1]; [3]): 2.6 | fold induction at 0.5 µM (Renilla [1]; [4]): 1 | fold induction at 2 µM (Renilla [1]; [4]): 1.3 | fold induction at 10 µM (Renilla [1]; [4]): 2.1 | fold induction at 40 µM (Renilla [1]; [4]): 3.5 | fold induction at 0.5 µM (Renilla [1]; [5]): 1.2 | fold induction at 2 µM (Renilla [1]; [5]): 1.4 | fold induction at 10 µM (Renilla [1]; [5]): 2.1 | fold induction at 40 µM (Renilla [1]; [5]): 4 | fold induction at 0.5 µM (HEK293 pGL4; HEK293, 0.5 uM, read-out: Firefly pGL4, cmpd/DMSO (mean)): 0.8 | fold induction at 2 µM (HEK293 pGL4; HEK293, 2 uM, read-out: Firefly pGL4, cmpd/DMSO (mean)): 1.2 | fold induction at 10 µM (HEK293 pGL4; HEK293, 10 uM, read-out: Firefly pGL4, cmpd/DMSO (mean)): 1.5 | fold induction at 40 µM (HEK293 pGL4; HEK293, 40 uM, read-out: Firefly pGL4, cmpd/DMSO (mean)): 1.5 | fold induction at 0.5 µM (HEK293 pGL4; HEK293, pGL4, 1% FBS, 0.5 uM, read-out: Firefly, pGL4, 1% FBS, cmpd/DMSO (mean)): 1 | fold induction at 2 µM (HEK293 pGL4; HEK293, pGL4, 1% FBS, 2 uM, read-out: Firefly, pGL4, 1% FBS, cmpd/DMSO (mean)): 1 | fold induction at 10 µM (HEK293 pGL4; HEK293, pGL4, 1% FBS, 10 uM, read-out: Firefly, pGL4, 1% FBS, cmpd/DMSO (mean)): 1.5 | fold induction at 40 µM (HEK293 pGL4; HEK293, pGL4, 1% FBS, 40 uM, read-out: Firefly, pGL4, 1% FBS, cmpd/DMSO (mean)): 1.5 | fold induction at 0.5 µM (HEK293 pGL4; HEK293, pGL4, 10% FBS, 0.5 uM, read-out: Firefly, pGL4, 10% FBS, cmpd/DMSO (mean)): 0.7 | fold induction at 2 µM (HEK293 pGL4; HEK293, pGL4, 10% FBS, 2 uM, read-out: Firefly, pGL4, 10% FBS, cmpd/DMSO (mean)): 1.1 | fold induction at 10 µM (HEK293 pGL4; HEK293, pGL4, 10% FBS, 10 uM, read-out: Firefly, pGL4, 10% FBS, cmpd/DMSO (mean)): 2.1 | fold induction at 40 µM (HEK293 pGL4; HEK293, pGL4, 10% FBS, 40 uM, read-out: Firefly, pGL4, 10% FBS, cmpd/DMSO (mean)): 4.3 | Renilla LBD, cmpd/DMSO (mean) (Renilla [2]; 0.5 uM): 1.0 | Renilla LBD, cmpd/DMSO (mean) (Renilla [2]; 2 uM): 1.0 | Renilla LBD, cmpd/DMSO (mean) (Renilla [2]; 10 uM): 0.8 | Renilla LBD, cmpd/DMSO (mean) (Renilla [2]; 40 uM): 0.4
